How the values were obtained:
[1] = molecular target: T1, KCNQ2/3 channels (Homo sapiens, UniProt O43525+O43526); experiment: Fluorescence assay using a voltage-sensitive dye (fluorimetry); type: cell-based; conditions: for EC50: CHO-K1 cells expressing KCNQ2/3 channels; for Emax at 1 µM: 50 μM retigabine = 100%, CHO-K1 cells expressing KCNQ2/3, read-out: Fluorimetry % efficacy at 1 μM (50 μM retigabine = 100%)
T1 construct: expressed in transfected cells; host or cells: CHO-K1 cells
Description: […] CHO-K1 cells expressing KCNQ2/3 channels are cultivated adherently at 37° C., 5% CO2 and 95% humidity in cell culture bottles (e.g. 80 cm^2 TC flasks, Nunc) with DMEM-high glucose (Sigma Aldrich, D7777) including 10% FCS (PAN Biotech, e.g. 3302-P270521) or alternatively MEM Alpha Medium (1×, liquid, Invitrogen, #22571), 10% foetal calf serum (FCS) (Invitrogen, #10270-106, heat-inactivated) and the necessary selection antibiotics.
Before being seeded out for the measurements, the cells are washed with a 1×DPBS buffer without Ca^2+/Mg^2+ (e.g. Invitrogen, #14190-094) and detached from the bottom of the culture vessel by means of Accutase (PAA Laboratories, #L11-007) (incubation with Accutase for 15 min at 37° C.). The cell count then present is determined using a CASY™ cell counter (TCC model, Scharfe System) in order subsequently to apply 20,000 to 30,000 cells/well/100 μl of the described nutrient medium, depending on density optimisation for the individual cell line, to 96-well measuring plates of the Corning™ CeIIBIND™ type (flat clear-bottom black polystyrene microplates, #3340). Incubation is then carried out for one hour at room temperature, without gassing or adjusting the humidity, followed by incubation for 24 hours at 37° C., 5% CO2 and 95% humidity.
The voltage-sensitive fluorescent dye from the Membrane Potential Assay Kit (Red™ bulk format part R8123 for FLIPR, MDS Analytical Technologies™) is prepared by dissolving the contents of a vessel of Membrane Potential Assay Kit Red Component A in 200 ml of extracellular buffer (ES buffer, 120 mM NaCl, 1 mM KCl, 10 mM HEPES, 2 mM CaCl2, 2 mM MgCl2, 10 mM glucose; pH 7.4). After removal of the nutrient medium, the cells are washed with 200 μl of ES buffer, then covered with a layer of 100 μl of the dye solution prepared above and incubated for 45 min at room temperature with exclusion of light.
The fluorescence measurements are carried out with a BMG Labtech FLUOstar™, BMG Labtech NOVOstar™ or BMG Labtech POLARstar™ instrument (525 nm excitation, 560 nm emission, bottom-read mode). After incubation of the dye, 50 μl of the substances to be tested in the desired concentrations, or 50 μl of ES buffer for control purposes, are introduced into separate cavities of the measuring plate and incubated for 30 min at room temperature whilst being shielded from light. The fluorescence intensity of the dye is then measured for 5 min and the fluorescence value F1 of each well is thus determined at a given, constant time. 15 μl of a […] KCl solution ([…]) are then added to each well. The change in fluorescence is subsequently measured until all relevant measured values have been obtained (mainly 5-30 min). At a given time after KCl application, a fluorescence value F2 is determined, in this case at the time of the fluorescence peak.
For calculation, the fluorescence intensity F2 is compared with the fluorescence intensity F1, and the agonistic activity of the target compound on the potassium channel is determined therefrom. F2 and F1 are calculated as follows: […]
is determined by adding to the reaction batch only the buffer solution instead of the substance to be tested, determining the value F1K of the fluorescence intensity, adding the potassium ions as described above and measuring a value F2K of the fluorescence intensity. Then F2K and F1K are calculated as follows: […]
Calculations of EC50 values are carried out with the aid of Prism v4.0 software (GraphPad Software™).

[2] = test system: Male Sprague-Dawley rats; experiment: Low-intensity tail flick in rats; type: in vivo; conditions: po, rat
From the text: The antinociceptive activity of the test substance against an acute noxic thermal stimulant was examined in the tail-flick test in rats using the method described by D′Amour and Smith (J. Pharm. Exp. Ther. 72, 74 79 (1941)). Male Sprague-Dawley rats weighing between 200 and 250 g were used (breeder: Janvier, Le Genest St. Isle, France). The animals were placed in special test compartments and the base of the tail was exposed to a focused light beam from an analgesia meter (model 2011, Rhema Labortechnik, Hofheim, Germany). 10 animals were used per group. Before administering a substance according to the invention, the tail-flick latency (time from switching on the light beam to the flick of the tail) was measured twice at an interval of five minutes and the average was defined as the control latency time. The intensity of the light beam was chosen so that the control latency time was 7 to 9 seconds.
The measurement of the tail-flick latency was then repeated 10, 20, 30 and 60 minutes after peroral administration of the substance. The antinociceptive action of the test substance was determined as the increase in the tail-flick latency time using the following formula:
where T0=control latency time before administration of the substance, T1=latency time after administration of the substance, T2=maximum exposure time to the light beam (30 seconds), MPE=maximum possible effect.
Analysis of variance (repeated measures ANOVA) was used to test for statistically significant differences between the substance and vehicle group. The significance level was set at ≦0.05.

[3] = p.o., MPE, read-out: Low-intensity tail flick rat p.o. % effect (dose [mg/kg])

Row | SMILES | EC50 [1] | Emax at 1 µM [1] | inhibition in vivo at 21.5 mg/kg [2, 3] | inhibition in vivo at 10 mg/kg [2, 3] | ED50 [2] | inhibition in vivo at 4.64 mg/kg ([2]; p.o., dose 4.64 mg/kg, MPE, read-out: Low-intensity tail flick rat p.o. % effect (dose [mg/kg]))
1 | CCSc1nc2cc(C(F)(F)F)ccc2c(C)c1C(=O)NCc1cccnc1 [compound 42] | 1690 nM | 175% | 51% |  |  | 
2 | CCSc1nc2ccc(O)cc2c(C)c1C(=O)NCc1cccc(F)c1 [compound 128] |  | 39% |  |  |  | 
3 | CCSc1nc2cc(O)ccc2c(C)c1C(=O)NCc1cccc(F)c1 [compound 129] |  | 12% |  |  |  | 
4 | CCSc1nc2cc(C(F)(F)F)ccc2c(N(C)C)c1C(=O)NCc1cccc(F)c1 [compound 131, 4-Dimethylamino-2-ethylsulfanyl-N-[(3-fluorophenyl)-methyl]-7-(trifluoromethyl)-quinoline-3-carboxamide] | 1820 nM | 104% |  |  |  | 
5 | CCSc1nc2cc(N(C)C)ccc2c(C)c1C(=O)NCc1ccc(F)cc1 [compound 133] |  | 15% |  |  |  | 
6 | CCSc1nc2cc(N3CCOCC3)ccc2c(C)c1C(=O)NCc1cccc(F)c1 [compound 134] |  | 21% |  |  |  | 
7 | CCSc1nc2cc(N3CCOCC3)ccc2c(C)c1C(=O)NCc1ccc(F)cc1 [compound 135] |  | 6% |  |  |  | 
8 | CCSc1nc2c(OC)cccc2c(C)c1C(=O)NCc1cccc(F)c1 [compound 138] | 2240 nM | 91% |  |  |  | 
9 | CCSc1nc2c(OC)cccc2c(C)c1C(=O)NCc1ccc(F)cc1 [compound 139] | 1960 nM | 91% |  |  |  | 
10 | CCSc1nc2c(O)cccc2c(C)c1C(=O)NCc1cccc(F)c1 [compound 140] | 1150 nM | 101% |  |  |  | 

More lines, main results first:

Row | EC50 [1] | Emax at 1 µM [1] | SMILES | inhibition in vivo at 21.5 mg/kg [2, 3] | inhibition in vivo at 10 mg/kg [2, 3] | ED50 [2] | inhibition in vivo at 4.64 mg/kg ([2]; p.o., dose 4.64 mg/kg, MPE, read-out: Low-intensity tail flick rat p.o. % effect (dose [mg/kg]))
11 | 291 nM | 223% | CCSc1nc2cc(C(F)(F)F)ccc2cc1C(=O)NCc1cccs1 [compound 14] | 9% |  |  | 
12 | 82 nM | 141% | CCSc1nc2cc(C(F)(F)F)ccc2c(C)c1C(=O)NCc1cccs1 [compound 30, 2-Ethylsulfanyl-4-methyl-N-(thiophen-2-yl-methyl)-7-(trifluoromethyl)-quinoline-3-carboxamide] |  | 31% |  | 
13 | 85 nM | 121% | CCSc1nc2cc(C(F)(F)F)ccc2c(C)c1C(=O)NCCC(C)C [compound 37] |  | 0% |  | 
14 | 92 nM | 182% | CCSc1nc2cc(C(F)(F)F)ccc2c(C)c1C(=O)NCc1cccc(F)c1 [compound 76] |  |  | 6.3 mg/kg | 
15 | 105 nM | 137% | CCSc1nc2cc(C(F)(F)F)ccc2c(C)c1C(=O)NCc1ccc(F)cc1 [compound 77] |  | 37% |  | 
16 | 64 nM | 220% | Cc1c(C(=O)NCc2cccs2)c(SC(C)(C)C)nc2cc(C(F)(F)F)ccc12 [compound 89] |  |  | 2.7 mg/kg | 
17 | 54 nM | 162% | Cc1c(C(=O)NCc2ccc(F)cc2)c(SC(C)(C)C)nc2cc(C(F)(F)F)ccc12 [compound 94] |  |  |  | 71%
18 | 187 nM | 144% | CCSc1nc2cc(F)c(F)cc2c(C)c1C(=O)NCc1ccc(F)cc1 [compound 109] |  | 7% |  | 
19 | 130 nM | 211% | CCSc1nc2cc(C(F)(F)F)ccc2c(C)c1C(=O)NCc1ccccc1O [compound 112, 2-Ethylsulfanyl-N-[(2-hydroxyphenyl)-methyl]-4-methyl-7-(trifluoromethyl)-quinoline-3-carboxamide] |  | 17% |  | 
20 | 58 nM | 180% | CCSc1nc2cc(C(F)(F)F)ccc2c(OC)c1C(=O)NCc1cccc(F)c1 [compound 130, 2-Ethylsulfanyl-N-[(3-fluorophenyl)-methyl]-4-methoxy-7-(trifluoromethyl)-quinoline-3-carboxamide] |  |  |  | 
21 | 51 nM | 161% | CCSc1nc2cc(OC(F)(F)F)ccc2c(C)c1C(=O)NCc1ccc(F)cc1 [compound 132, 2-Ethylsulfanyl-N-[(4-fluorophenyl)-methyl]-4-methyl-7-(trifluoromethyloxy)-quinoline-3-carboxamide] |  |  |  | 
22 | 227 nM | 164% | CCSc1nc2c(C(F)(F)F)cccc2c(C)c1C(=O)NCc1cccc(F)c1 [compound 136] |  |  |  | 
23 | 225 nM | 166% | CCSc1nc2c(C(F)(F)F)cccc2c(C)c1C(=O)NCc1ccc(F)cc1 [compound 137] |  |  |  | 

Reference: patent publication US20100234372A1, “SUBSTITUTED 2-MERCAPTOQUINOLINE-3-CARBOXAMIDES AS KCNQ2/3 MODULATORS” (GRUNENTHAL GMBH, priority 2009, published 2010)
